# Source: patent US20060210520A1, “Macadamia lipid based surfactants and derivatives and process for preparing same” (Finetex, Inc., priority 2005, published 2006)
# Assay: Analytical results of the Macadamia esters (Table I)
# Format: physicochemical
# Description: An analysis of the esters was conducted as to appearance, color, surface tension, spreading coefficient, freezing point, percentage of water, refractive index, and specific gravity.
Spreading Coeffecient (° C.),Viscosity (CPS),Interfacial Tension (25° C.),Surface Tension (25° C.),Substance
32.15,120,8.35,32.50,Ceteareth-4 Macadamiate
31.50,100,8.50,32.00,C12-15 Pareth-7 Macadamiate
32.75,40,7.75,31.5,Isostearyl Macadamiate
34.00,80,7.00,31.0,PPG-3 Myristyl Ether Macadamiate
